Tested on: learning and memory process of mouse
Experiment: platform-jumping electrical-shock avoidance test, learning and 24 h memory, scopolamine-induced impediment
Assay type: in vivo
Settings: for Memory Results EN / Memory Results RT / Learning Results EN / Learning Results RT: scopolamine 1 mg/kg; for Memory Results EN / Memory Results RT: memory test 24 hrs later; for Learning Results EN / Learning Results RT: training trial
Experimental: The pharmacological tests of memory-enhancing peptide in this invention have been performed as following: the animals have been divided into three groups: drug administration group, control group and model group, with each group administrated with memory-enhancing peptide, saline and scopolamine respectively. In the test, the groups except control group were injected with scopolamine after the administration of medicine about 50 min., 10 min. later, the training began. First, the animals will be put into reaction box for 3 min. before each trails to familiarize them with the environment. Then, the reaction box are charged with 36V alternating current. When the animal subjects to electrical shock, it will jump up to the central platform to avoid harmful stimulation as a normal response. Most of animals may be return to the copper curdles twice or even more times, but they will jump back to the platform swiftly as the results of electrical shock. Each test trail will be performed for 5 min. and two following indices will be used to represent the learning results: (I) the number of total error (EN) during the whole training period; (2) the reaction time (RT) for the first returning to the copper curdle in the trail. The trails will repeat again 24 hrs later as memory test.

Compound	Memory Results EN (drug 100 μg/kg)	Memory Results RT (drug 100 μg/kg)	Learning Results EN (drug 100 μg/kg, number of total errors)	Learning Results RT (drug 100 μg/kg, reaction time for first return to the copper curdle)	effect on memory and learning impediment induced by scopolamine, compared with model group (0.5 μg and 1 μg/kg, longer incubation period and lesser error numbers, P<0.01)	effect on memory and learning impediment induced by scopolamine, compared with Huperzine A (100 μg/kg) (0.5 μg/kg and 1 μg/kg)	Memory Results EN (drug 0.25 μg/kg)	Memory Results RT (drug 0.25 μg/kg)	Learning Results EN (drug 0.25 μg/kg)	Learning Results RT (drug 0.25 μg/kg)	Memory Results EN (drug 0.5 μg/kg)	Memory Results RT (drug 0.5 μg/kg)	Learning Results EN (drug 0.5 μg/kg)	Learning Results RT (drug 0.5 μg/kg)	Memory Results EN (drug 1 μg/kg)	Memory Results RT (drug 1 μg/kg)	Learning Results EN (drug 1 μg/kg)	Learning Results RT (drug 1 μg/kg)	effect on memory and learning impediment induced by scopolamine (summary of Table 1) (mouse, in vivo)
C/C=C1\[C@H]2C=C(C)C[C@]1(N)c1ccc(=O)[nH]c1C2 [Huperzine A, reference compound]	0.9	231.9 s	1.3	120.5 s	–	–	–	–	–	–	–	–	–	–	–	–	–	–	–
PyroGlu-Asn-Cys(S-Bu^t)-Pro-Arg [MEP-531]	–	–	–	–	obviously improve	better effects than Huperzine A	0.9	197.6 s	0.3	78.8 s	0.5	245.5 s	0.2	241.6 s	0.3	282.8 s	0.3	267.6 s	remarkably ameliorate

Reference: patent US7119063B2, “Memory-enhancing peptides and the use thereof” (Shanghai Cas Intide Biotech Co., Ltd., priority 2000, dated 2006)
